Counter-ions that a name gives are not always drawn.
Assays:
[1] = Pharmacokinetic study of the different crystalline forms and the free base in rats; type: in vivo, Wistar rats; details: fasted Wistar rats, oral suspension, dose equivalent to 35 mg/kg Icotinib hydrochloride, plasma
Protocol: Drugs and reagents: Icotinib (free base) and Icotinib hydrochloride crystalline forms I, II, III, and IV were ground to fine particles. The material content (purity) was not less than 99.0%. Sodium carboxymethyl cellulose was medical supply graded. Experimental animals: Wistar rats, male and female, 150-220 g each. Pharmaceutical preparation: Weigh the appropriate amount of each substance and add sodium carboxymethyl cellulose to 0.5%. Prepare a suspension at a final concentration of 3.5 mg/mL in water. Administration and sample collection: Each suspension was administered orally to fasted Wistar rats at a dose equivalent to 35 mg/kg Icotinib hydrochloride in a dose volume of 10 ml/kg. […] After purification, samples were analyzed by high performance liquid chromatography. The chromatographic conditions utilized C18-silane bonded silica as stationary phase, 0.02 mol/L of sodium dihydrogen phosphate in acetonitrile (40:60, using sodium hydroxide solution to adjust pH to 5.0) as the mobile phase and a detection wavelength of 334 nm.

[2] = test system: human A431 (human epidermoid carcinoma cell line) xenograft tumor; assay: Tumor inhibition on human A431 xenograft in nude mice; type: in vivo, BALB/C nude mice
Source text: This was a preliminary study to compare Icotinib hydrochloride Crystalline Form I with erlotinib hydrochloride on inhibition of human A431 (human epidermoid carcinoma cell line) xenograft tumor.
Methods: The high EGFR-expressing human A431 (human epidermoid carcinoma cell line) cell line was selected for the xenograft study.
Tumor transplantation method: A431 human epidermoid cancer cells were inoculated subcutaneously in the right armpit of BALB/C nude mice to generate tumor nodules. These nodules were harvested, cut into 6 mm^3 blocks for routine inoculation and implanted into each mouse for the study. When tumors reached approximately 20 mm^3 in size (6-7 days), the animals were randomly divided into 4 groups of 6-9 animals/each group and body weights were recorded. The groups consisted of a control group (no drug treatment), an erlotinib hydrochloride treatment group (200 mg/kg) and high and low dose Icotinib hydrochloride Crystalline Form I treatment groups (200 and 50 mg/kg). Drugs were administered by oral gavage once daily; dosing frequency depended on the individual case for tumor growth. Tumor volume [tumor volume (V)=tumor size (L)×short diameter of tumor (S)^2/2] was measured using calipers once every 3 days. The animals were sacrificed 24-hour after the last drug administration and weighed. The tumor was removed and weighed to accurately calculate the tumor size. All group data was analyzed using the t test. If the p value was <0.05, it was considered to be statistically significant. Efficacy determination: tumor inhibition rate=[1−treatment group mean tumor weight (T)/control group mean tumor weight (C)]×100%

Structure (SMILES)	The area under the concentration-time curve (0-infinity) [1]	The area under the concentration-time curve (0-t) [1]	body weight and appearance at experiment termination ([2]; A431 xenograft nude mice)	tumor inhibition rate ([2]; A431 xenograft, 200 mg/kg oral gavage once daily (later reduced to 100 mg/kg)) [%]	animals died ([2]; after 5 days at 200 mg/kg)
C#Cc1cccc(Nc2ncnc3cc4c(cc23)OCCOCCOCCO4)c1 [Free base, 4-[(3-ethynyl-phenyl)amino]-6,7-benzo-12-crown-quinazoline, reference compound]	29.36	28.83			
C#Cc1cccc(Nc2ncnc3cc(OCCOC)c(OCCOC)cc23)c1 [erlotinib, Erlotinib Hydrochloride, reference compound]			lost weight and appeared sluggish	77.6	3 of 8
